A short description of assay [1]: microbe, parasite or virus in culture. The conditions noted are these: Mycobacterium tuberculosis, 96 h, read-out: pIC50 (converted).
The nature of assay [2]: microbe, parasite or virus in culture. To be noted: Mycobacterium tuberculosis, 72 h, read-out: pIC50 (converted).

SMILES strings stand for the structures.

Regarding `CN(C)S(=O)(=O)NCCNc1cccc(Br)c1`, the IC50 in assay [1] is 208 µM; in assay [2], 154 µM.

For the compound `NC(=O)CN1CCC(OCCCc2ccccc2)C1` (centres undefined), the values for the IC50 in assay [1] and in assay [2] were 369 µM and 246 µM, respectively.

Turning to `O=S(=O)(CCN1CC[C@@H](O)C1)c1cccc(Br)c1`, the IC50 in assay [1] was 146 µM; in assay [2] it was 112 µM.

Regarding `Cc1cnc(N2CCC(O)CC2)c(Br)c1`, the IC50 in assay [1] and in assay [2] was > 501 µM in each case.

`CCCNC(=O)c1cc(C(C)C)on1`: the IC50 in assay [1] was 44.3 µM; in assay [2] it was 9.31 µM.

As to `O=C(COC(=O)c1ccccn1)Nc1ccccc1`, the IC50 in assay [1] is > 501 µM; in assay [2] it was 234 µM.

Consider `NCCNS(=O)(=O)c1ccc(F)c(C(F)(F)F)c1`, for which the IC50 in assay [1] is > 501 µM; in assay [2], 476 µM.

Take `CC(Cn1c(=O)[nH]c2ccccc2c1=O)N1CCCC1` (centres undefined): the IC50 in assay [1] is 111 µM; in assay [2], 63.1 µM.

As to `CCNCc1nc(-c2ccccc2)no1`, the IC50 in assay [1] and in assay [2] was > 501 µM in each case.

With `CCn1nnc(NCc2ccc(-c3ccc(Br)cc3)o2)n1`, the IC50 in assay [1] is 14.1 µM; in assay [2] it was 44.3 µM.

Turning to `CC(c1ccccc1)N(C)C(=O)CN1CCCc2cccc(F)c21` (centres undefined), the IC50 is > 50.1 µM in assay [1] and 31.2 µM in assay [2].

`CCc1ccc(CNc2ccc(CO)cn2)cc1`: the IC50 in assay [1] was 356 µM; in assay [2], 160 µM.

For `Cn1cc(CN2CC[C@@H]3[C@@H](CCC(=O)N3CCC3=CCCCC3)C2)cn1`, the IC50 in assay [1] and in assay [2] was > 50.1 µM each time.

On to `CCCn1c(O)nnc1SCc1cccc(OC)n1`, for which the results for the IC50 in assay [1] and in assay [2] were 436 µM and 256 µM, respectively.

Turning to `CO[C@H]1CNCC1NC(=O)c1cc2ccccc2n1C` (some centres undefined), the IC50 in assay [1] is > 501 µM; in assay [2], 359 µM.

Regarding `C=C(C)CN1CCC(NC(=O)N2CCSCC2)CC1`, the IC50 in assay [1] and in assay [2] was > 501 µM throughout.

`Cn1c(C2CC2)nc2c1CCN(Cc1nc(-c3ccsc3)no1)C2`: the IC50 in assay [1] was > 50.1 µM; in assay [2], 16.2 µM.

As to `CCn1ccc(C(=O)N(C)Cc2cccnc2OC)n1`, the results for the IC50 in assay [1] and in assay [2] were 212 µM and > 501 µM, respectively.

As to `CC(C(=O)NC1CC1)N1CCN(C)c2ccccc2C1` (centres undefined), the values for the IC50 in assay [1] and in assay [2] were 276 µM and 248 µM, respectively.

With `Cc1cnn(CC2CCCN2c2ncnc3c2CCC3)c1` (centres undefined), the IC50 in assay [1] and in assay [2] was > 50.1 µM each time.

In the case of `CNCc1nc2c(s1)CCCC2`, the IC50 in assay [1] was 259 µM; in assay [2], 221 µM.

As for `COc1ccc(CC2CCN2)cc1` (centres undefined), the IC50 in assay [1] was 250 µM; in assay [2], 212 µM.

In the case of `CC(CNC(=O)N[C@@H](C)C(=O)N(C)C)Cc1cccs1` (some centres undefined), the results for the IC50 in assay [1] and in assay [2] were 277 µM and 247 µM, respectively.

For `Cn1nc(CN2CCCN(C3CCCC3)CC2)c2c(Cl)cccc21`, the IC50 in assay [1] is 39.8 µM; in assay [2] it was 44.8 µM.

As for `COc1cccc2c1CCC2N` (centres undefined), the IC50 in assay [1] is > 501 µM; in assay [2], 223 µM.

In the case of `NC1(c2nc(C3CC3)cc(=O)[nH]2)CCCC1`, the IC50 was > 501 µM in assay [1] and 304 µM in assay [2].

For the compound `Cc1ccccc1-n1nnnc1SCC(=O)NC1CC1`, the results for the IC50 in assay [1] and in assay [2] were > 501 µM and 199 µM, respectively.

For `Fc1ccc(Cn2ccnn2)c(Cl)c1`, the IC50 in assay [1] and in assay [2] was > 501 µM each time.

`CN(C)c1cc(C(=O)Nc2ccccc2F)ccn1`: the IC50 in assay [1] was 321 µM; in assay [2], 237 µM.

As for `O=C(OCCNc1ncccn1)c1ccc(Br)s1`, the IC50 is 29.8 µM in assay [1] and > 50.1 µM in assay [2].

As for `COCCn1nnc(-c2cccc(OC)c2)n1`, the IC50 is 42.2 µM in assay [1] and 43.7 µM in assay [2].

Consider `CCn1nnc(NCc2ccccc2)n1`, for which the IC50 in assay [1] is > 501 µM; in assay [2], 229 µM.

With `Cc1cc(N2CCN(C(=O)Cc3ccc4c(c3)OCO4)CC2)cc(C)n1`, the IC50 in assay [1] and in assay [2] was > 50.1 µM in each case.

Regarding `O=C(NCC1CCCO1)c1cc(-c2cccs2)on1` (centres undefined), the IC50 in assay [1] was 54.8 µM; in assay [2], 38.3 µM.

Turning to `NC(=O)c1ccc(-c2nc(C3CCCC3)no2)o1`, the IC50 in assay [1] was 228 µM; in assay [2] it was 338 µM.

As for `O=C(CSc1ccc(F)cc1)N1CCC1`, the IC50 in assay [1] was > 501 µM; in assay [2], 180 µM.

For `CCOc1cccc(CCN)n1`, the IC50 in assay [1] was > 501 µM; in assay [2], 234 µM.

As to `Cc1noc(NC(=O)c2ccc(C(F)(F)F)nc2C)n1`, the IC50 in assay [1] is 151 µM; in assay [2], 164 µM.

In the case of `CC(C)CNc1nc(N)c2cn[nH]c2n1`, the IC50 in assay [1] is 234 µM; in assay [2], 80 µM.

For `COC(=O)c1ccc(N2CCC(C(O)c3ccccc3)CC2)nn1` (centres undefined), the IC50 in assay [1] was 20.5 µM; in assay [2], 24.3 µM.

Consider `NC(=O)NC(=O)CCN1CCCc2c(Br)cccc2C1`, for which the IC50 is 96 µM in assay [1] and 48 µM in assay [2].

As for `Cc1cnc(N2C(=O)CSC2c2ccc(N(C)C)cc2)s1` (centres undefined), the IC50 in assay [1] is 5.45 µM; in assay [2] it was 7.14 µM.

Regarding `COc1ncccc1CN(C)S(=O)(=O)c1cccs1`, the IC50 in assay [1] was 286 µM; in assay [2], 159 µM.

In the case of `NCCC1CN(Cc2cc3ccccc3s2)CCO1` (centres undefined), the IC50 in assay [1] is 332 µM; in assay [2], 308 µM.

For `Cc1ccc(C(=O)N2CC(Oc3ccccc3C)C2)s1`, the IC50 is 10.7 µM in assay [1] and 8.82 µM in assay [2].

On to `Cc1ccc(-c2noc(C(C)N)n2)cc1F` (centres undefined), for which the IC50 was 327 µM in assay [1] and 368 µM in assay [2].

With `O=C(NCC(=O)N1CCc2ccccc2C1)c1cnccn1`, the IC50 in assay [1] and in assay [2] was > 50.1 µM throughout.

On to `Cc1ccc(-c2nc(CNC(C)Cn3cccn3)cs2)o1` (centres undefined), for which the IC50 in assay [1] and in assay [2] was > 50.1 µM throughout.

With `CCc1nc(CN(C)C2CCN(CCC(=O)N3CCCCC3)C2)no1` (centres undefined), the IC50 in assay [1] and in assay [2] was > 50.1 µM each time.

In the case of `CN(CCc1ccccc1)CCS(=O)(=O)CCC(N)=O`, the IC50 was 175 µM in assay [1] and 442 µM in assay [2].

On to `COc1cccc(-c2noc3c2CN(c2nc(C)ncc2C)CC3)c1`, for which the IC50 in assay [1] is 34.5 µM; in assay [2], 3.39 µM.

In the case of `O=C(c1cscn1)N1CCN(c2ccc(Cl)cn2)CC1`, the IC50 in assay [1] was 249 µM; in assay [2], 116 µM.

Regarding `CCC(C)Oc1ccc(CNCCNS(C)(=O)=O)cc1Cl` (centres undefined), the IC50 in assay [1] and in assay [2] was > 50.1 µM each time.

As for `CC(C)n1ccc(CC(=O)N2CCCC2)n1`, the IC50 in assay [1] and in assay [2] was > 501 µM throughout.

With `COc1ccc2nnc(C(=O)NCC3CCCC3)nc2c1`, the values for the IC50 in assay [1] and in assay [2] were > 50.1 µM and 12.3 µM, respectively.

As to `CCCc1cc(CN(C)C(=O)c2cccs2)n[nH]1`, the IC50 in assay [1] is 437 µM; in assay [2] it was 293 µM.

`Cn1ccc(C(=O)NCc2csc(Br)c2)cc1=O`: the IC50 in assay [1] and in assay [2] was > 501 µM throughout.

On to `CC(=O)c1c(C)[nH]c(C(=O)OCC(=O)N(C)C)c1C`, for which the figures for the IC50 in assay [1] and in assay [2] were 286 µM and 279 µM, respectively.

For the compound `COc1cc(OC)cc(N2CCCNCC2)c1`, the IC50 is 150 µM in assay [1] and 112 µM in assay [2].

Turning to `Fc1ccc(NCC2CCC3(CC2)OCCO3)nc1`, the IC50 is 205 µM in assay [1] and 264 µM in assay [2].

Regarding `CCS(=O)(=O)NCCNS(=O)(=O)c1ccc(C)cc1Cl`, the IC50 in assay [1] and in assay [2] was > 501 µM in each case.

`COc1ccnc(NC(=O)NCc2cccs2)c1`: the IC50 is 119 µM in assay [1] and 90.3 µM in assay [2].

In the case of `Cc1ccc(CN2CC[C@H](c3nnc(COc4ccc(F)cc4)o3)C2)o1`, the IC50 in assay [1] is 37.2 µM; in assay [2], > 50.1 µM.

For the compound `Cc1cccc(-c2ccc(C(=O)NCCN3CCOCC3)c(=O)[nH]2)c1`, the IC50 in assay [1] and in assay [2] was > 50.1 µM in each case.

On to `O=C(CCSc1ccc(F)cc1)N1CCN(c2cnccn2)CC1`, for which the IC50 in assay [1] and in assay [2] was > 50.1 µM each time.

Take `Cc1cc(C)cc(OCC(=O)N2CCOCC2)c1`: the IC50 is > 501 µM in assay [1] and 155 µM in assay [2].

Consider `CN(CCC(O)c1ccccc1)C(=O)c1cc(Cl)c[nH]1` (centres undefined), for which the IC50 in assay [1] was 485 µM; in assay [2] it was 237 µM.

`COCc1ccc(C(=O)NCc2cccc(F)c2)o1`: the IC50 in assay [1] is 35.8 µM; in assay [2], 59.4 µM.

Consider `O=c1c2sccc2nc2n1CCN(Cc1ccc(F)c(F)c1)CC2`, for which the IC50 is 4.05 µM in assay [1] and > 50.1 µM in assay [2].

Turning to `CCN(Cc1cnn(C)c1)C[C@H]1CC[C@@H](Cc2cccc(CN)c2)O1`, the IC50 in assay [1] and in assay [2] was > 50.1 µM each time.

Turning to `COc1ccc(C2CCN(CC(=O)NC(N)=O)C2)cc1` (centres undefined), the IC50 in assay [1] and in assay [2] was > 501 µM each time.

Regarding `CN1CCN(C(=O)CC2Cc3ccccc3C2)CC1`, the IC50 was 43.7 µM in assay [1] and 96 µM in assay [2].

`COCCNC(=O)c1cc(-c2cccc(O)c2)on1`: the IC50 in assay [1] is 157 µM; in assay [2], 231 µM.

For the compound `CCN(CC1CCOC1)C(=O)c1cc(I)c[nH]1` (centres undefined), the IC50 in assay [1] is > 501 µM; in assay [2], 212 µM.

In the case of `Cc1nc2c(c(N3CCC(CCn4cccn4)CC3)n1)CCNCC2`, the IC50 in assay [1] and in assay [2] was > 50.1 µM throughout.

As for `Cc1cc2nc(CN)[nH]c2cc1C`, the IC50 is > 501 µM in assay [1] and 148 µM in assay [2].

Turning to `CCOCCSc1nnc(Cc2ccccc2F)o1`, the values for the IC50 in assay [1] and in assay [2] were 27.5 µM and 33.5 µM, respectively.

For the compound `COC(=O)CS(=O)(=O)c1ccc(C)c(Cl)c1`, the IC50 in assay [1] is > 501 µM; in assay [2], 249 µM.

For `NCC(=O)N1CCCC(CCc2ccc(F)cc2)C1` (centres undefined), the IC50 in assay [1] was 310 µM; in assay [2], 333 µM.

Consider `Nc1cnn(Cc2ccccn2)c1`, for which the results for the IC50 in assay [1] and in assay [2] were > 501 µM and 206 µM, respectively.

`O=C(NCC1(c2ccc(F)cc2)CC1)N1CCC2(CCOC2)C1` (centres undefined): the IC50 in assay [1] and in assay [2] was > 50.1 µM in each case.

Turning to `NS(=O)(=O)N1CCN(CC=Cc2ccc(F)cc2)CC1`, the IC50 is > 501 µM in assay [1] and 233 µM in assay [2].

For the origin of these results see ChEMBL document CHEMBL3988442, “University of Dundee, Small-Polar-MMV Screening Library” (2021).
